Laboratory results: ChEMBL document CHEMBL2057091, “InCl3-catalysed synthesis of 2-aryl quinazolin-4(3H)-ones and 5-aryl pyrazolo[4,3-d]pyrimidin-7(6H)-ones and their evaluation as potential anticancer agents” (Bioorg Med Chem Lett, 2012)

Legend:
[1] = target: T1, NAD-dependent protein deacetylase sirtuin-1 (Homo sapiens) (UniProt Q96EB6); experiment: Inhibition of Sirt1 expressed in human U2OS cells assessed as acetylation of p53 at 10 uM; format: cell-based
T1 sequence (whole entry): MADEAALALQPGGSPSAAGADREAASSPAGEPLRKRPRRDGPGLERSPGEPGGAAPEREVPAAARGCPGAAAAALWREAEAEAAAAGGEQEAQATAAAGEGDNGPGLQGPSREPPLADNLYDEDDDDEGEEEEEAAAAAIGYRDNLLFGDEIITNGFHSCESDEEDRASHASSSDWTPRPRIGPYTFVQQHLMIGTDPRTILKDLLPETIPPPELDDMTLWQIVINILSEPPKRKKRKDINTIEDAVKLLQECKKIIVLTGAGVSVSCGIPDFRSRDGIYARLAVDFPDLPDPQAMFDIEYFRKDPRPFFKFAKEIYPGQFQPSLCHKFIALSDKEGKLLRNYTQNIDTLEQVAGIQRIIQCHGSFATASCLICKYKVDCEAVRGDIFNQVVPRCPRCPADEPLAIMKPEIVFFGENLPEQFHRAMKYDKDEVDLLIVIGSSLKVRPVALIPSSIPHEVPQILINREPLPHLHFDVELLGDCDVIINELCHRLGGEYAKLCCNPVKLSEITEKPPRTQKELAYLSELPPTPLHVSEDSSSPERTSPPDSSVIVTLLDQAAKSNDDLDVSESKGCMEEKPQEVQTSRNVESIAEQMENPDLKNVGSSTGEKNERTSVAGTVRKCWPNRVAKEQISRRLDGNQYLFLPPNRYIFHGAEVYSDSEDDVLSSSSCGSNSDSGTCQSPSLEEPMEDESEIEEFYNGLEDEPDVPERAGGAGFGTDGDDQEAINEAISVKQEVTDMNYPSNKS

COLO 205 = experiment: Antiproliferative activity against human COLO205 cells by MTT assay; format: functional, cell-based
K562 = experiment: Antiproliferative activity against human K562 cells by MTT assay; format: functional, cell-based
MDA-MB-231 = experiment: Antiproliferative activity against human MDA-MB-231 cells by MTT assay; format: functional, cell-based

## Cc1ccc(C(=O)Nc2ccc(S(=O)(=O)O)c3cc(S(=O)(=O)O)cc(S(=O)(=O)O)c23)cc1NC(=O)c1cccc(NC(=O)Nc2cccc(C(=O)Nc3cc(C(=O)Nc4ccc(S(=O)(=O)O)c5cc(S(=O)(=O)O)cc(S(=O)(=O)O)c45)ccc3C)c2)c1
[1]
  inhibition: 79%

## CCCc1nn(C)c2c(=O)[nH]c(-c3ccc(OC)cc3)nc12
COLO 205; Homo sapiens, COLO 205
  IC50: 9 µM
K562; Homo sapiens, K562
  IC50: 21 µM
MDA-MB-231; Homo sapiens, MDA-MB-231
  IC50: 44 µM

## CCCc1nn(C)c2c(=O)[nH]c(-c3ccc(C)cc3)nc12
COLO 205; Homo sapiens, COLO 205
  IC50: 14 µM
K562; Homo sapiens, K562
  IC50: 19 µM
MDA-MB-231; Homo sapiens, MDA-MB-231
  IC50: 48 µM

## CCCc1nn(C)c2c(=O)[nH]c(-c3cccc(Br)c3)nc12
COLO 205; Homo sapiens, COLO 205
  IC50: 12 µM
K562; Homo sapiens, K562
  IC50: 24 µM
[1]
  inhibition: 59%
MDA-MB-231; Homo sapiens, MDA-MB-231
  IC50: 38 µM

## CCCc1nn(C)c2c(=O)[nH]c(-c3ccc(Br)cc3)nc12
COLO 205; Homo sapiens, COLO 205
  IC50: 25 µM
K562; Homo sapiens, K562
  IC50: 17 µM
MDA-MB-231; Homo sapiens, MDA-MB-231
  IC50: 46 µM

## CCCc1nn(C)c2c(=O)[nH]c(-c3ccc(Cl)cc3)nc12
COLO 205; Homo sapiens, COLO 205
  IC50: 10 µM
K562; Homo sapiens, K562
  IC50: 15 µM
MDA-MB-231; Homo sapiens, MDA-MB-231
  IC50: 51 µM

## O=c1[nH]c(-c2ccc(Br)cc2)nc2ccccc12
COLO 205; Homo sapiens, COLO 205
  IC50: 11 µM
K562; Homo sapiens, K562
  IC50: 21 µM
MDA-MB-231; Homo sapiens, MDA-MB-231
  IC50: 41 µM

## O=c1[nH]c(-c2cccc(Cl)c2)nc2ccccc12
COLO 205; Homo sapiens, COLO 205
  IC50: 12 µM
K562; Homo sapiens, K562
  IC50: 18 µM
MDA-MB-231; Homo sapiens, MDA-MB-231
  IC50: 41 µM

## CCCc1nn(C)c2c(=O)[nH]c(-c3ccc(O)c(OC(F)F)c3)nc12
COLO 205; Homo sapiens, COLO 205
  IC50: 7 µM
K562; Homo sapiens, K562
  IC50: 15 µM
[1]
  inhibition: 63%
MDA-MB-231; Homo sapiens, MDA-MB-231
  IC50: 25 µM

## O=c1[nH]c(-c2ccc([N+](=O)[O-])cc2)nc2ccccc12
COLO 205; Homo sapiens, COLO 205
  IC50: 23 µM
COLO 205; colo 205
  IC50: 12 µM
K562; Homo sapiens, K562
  IC50: 20 µM
K562; k562
  IC50: 19 µM
MDA-MB-231; Homo sapiens, MDA-MB-231
  IC50: 37 µM
MDA-MB-231; mda-mb-231
  IC50: 42 µM

## COc1ccc2c(c1)[nH]c1c(C)nccc12 [HARMINE]
COLO 205; Homo sapiens, COLO 205
  IC50: 8 µM
K562; Homo sapiens, K562
  IC50: 14 µM
MDA-MB-231; Homo sapiens, MDA-MB-231
  IC50: 32 µM

## COc1ccc(-c2nc(O)c3ccccc3n2)cc1
COLO 205; Homo sapiens, COLO 205
  IC50: 8 µM
K562; Homo sapiens, K562
  IC50: 24 µM
MDA-MB-231; Homo sapiens, MDA-MB-231
  IC50: 28 µM

## Oc1nc(-c2ccc(F)cc2)nc2ccccc12
COLO 205; Homo sapiens, COLO 205
  IC50: 10 µM
K562; Homo sapiens, K562
  IC50: 17 µM
[1]
  inhibition: 48%
MDA-MB-231; Homo sapiens, MDA-MB-231
  IC50: 20 µM

## CCCc1nn(C)c2c(=O)[nH]c(-c3cccc([N+](=O)[O-])c3O)nc12
COLO 205; Homo sapiens, COLO 205
  IC50: 10 µM
K562; Homo sapiens, K562
  IC50: 21 µM
[1]
  inhibition: 61%
MDA-MB-231; Homo sapiens, MDA-MB-231
  IC50: 44 µM

## CCCc1nn(C)c2c(=O)[nH]c(-c3cccc(Cl)c3)nc12
COLO 205; Homo sapiens, COLO 205
  IC50: 11 µM
K562; Homo sapiens, K562
  IC50: 16 µM
MDA-MB-231; Homo sapiens, MDA-MB-231
  IC50: 40 µM
